US6008188A, “Cytokine potentiator and pharmaceutical formulation for cytokine administration” (Kanebo Limited, priority 1994, dated 1999)

Tests used:
[1] = tested on: Japanese native, male house rabbits; settings: rabbit, in vivo
Description: Aqueous solutions of N-methyl-L-serine, ethanolamine and N-methylethanolamine that had been adjusted to have a pH 7 with hydrochloric acid were used as test samples.
Using Japanese native, male house rabbits (body weight: about 3 kg), the test samples were tested according to the above-mentioned the Draize method.
Precisely, the back of each rabbit was shaven and rubbed to form a scratched site (scratched skin). An adhesive tape for patch test (1.2×1.6 cm; Ribbon Aid, registered trade mane, produced by River Tape Chemicals Co.) as wetted with 0.1 ml of water, or 0.1 ml of an aqueous 1% (W/V) solution of the test compound was stuck onto the scratched skin and the normal skin. […] In addition, 48 hours after the peeling of the tape, the condition of the skin was also observed.
The scores as referred to in Table 21 were obtained, and the primary stimulation score was calculated according to the following equation.
Primary Stimulation Score=[(A+B)/2]+[(C+D)/2]+[(E+F)/2]+[(G+H)/2]
Next, from the primary stimulation scores, obtained was the degree of stimulation with N-Methyl-L-Serine or Ethanolamine or N-Methylethanolamineaccording to the criteria shown in Table 22 below.

[2] = tested on: Normal human fibroblasts [CCD45SK (ATCC CRL 1506)]; assay: Response to PDGF: procollagenase production by normal human fibroblasts (Test Example 11); format: cell-based; settings: 1 mM, 6 days, 30 ng/ml PDGF-BB
Description: Normal human fibroblasts [CCD45SK (ATCC CRL 1506) as prepared from the skin of a person] were suspended at a cell density of 1×10^5 cells/ml in the MEM medium, comprising 10% (V/V) FBS and 1% (V/V) non-essential amino acids (produced by Dai-Nippon Pharmaceutical Co.). The suspended cells were seeded into each well of a 12-well plate in an amount of 0.8 ml/well (corresponding to 8×10^4 cells/well) and incubated in a saturated aqueous vapor with 5% CO2 at 37° C.

[3] = tested on: Normal human fibroblasts [CCD45SK (ATCC CRL 1506)]; assay: Response to βFGF: procollagenase production by normal human fibroblasts CCD45SK (Test Examples 1-3); format: cell-based; settings: for activity at 1000 µM: Homo sapiens, Fibroblast, read-out: Response to βFGF Increment; for Procollagenase Production: mean ± SD, n = 3
Description: In the following tests, the procollagenase production was quantified in terms of the collagenase activity as obtained through activation with trypsin.
It is known that βFGF promotes procollagenase production. In the following tests, therefore, the βFGF activity increment as attained by the compound added was calculated from the procollagenase production, relative to the control using purified water in place of the test compound.
Normal human fibroblasts [CCD45SK (ATCC CRL 1506) as prepared from the skin of a person] were suspended at a cell density of 1×10^5 cells/ml in the MEM medium, comprising 10% (V/V) FBS and 1% (V/V) non-essential amino acids (produced by Dai-Nippon Pharmaceutical Co.). The suspended cells were seeded into each well of a 12-well plate in an amount of 0.8 ml/well (corresponding to 8×10^4 cells/well) and incubated in a saturated aqueous vapor with 5% CO2 at 37° C. […]
After having been incubated for 24 hours, the culture medium was removed from the plate by suction, and the cells remained were washed twice with an MEM medium containing 0.6% (v/v) (as final concentration) of FBS. Then, the cells were fed with 0.8 ml of the solution prepared above added to the cells, which were incubated for 2 days.
After the 2 days incubation, the culture medium was removed from the plate by suction, and the cells were fed with 0.8 ml of the solution and were further incubated for 2 days. This operation was repeated once again. Thus, the cells were processed in the medium containing the cytokine activity enhancer for 6 days in total.
After the above-mentioned process, the culture medium was removed from the plate by suction, and the cells were fed with 0.8 ml of an MEM medium containing 3 ng/ml of βFGF (produced by Boehringer Manheim Co.) and 0.6% (V/V) FBS, and were incubated for 3 days to obtain a culture supernatant.
3.5 ml of 10 mM Tris-HCl buffer [adjusted at pH 7.8 at 4° C., containing 1 mM calcium chloride and 0.05% (W/V) Brij-35] was added to 500 μl of the thus-obtained culture supernatant, and applied to CM-Sepharose CL-6B (trade name, produced by Pharmacia Co., having a bed volume of 0.5 ml) as previously equilibrated with the same buffer.
Next, the inhibitor was removed through treatment with 0.5 ml of the same buffer as above but containing 125 mM sodium chloride (4 times in all, 2 ml of the buffer was used in total), and the procollagenase was recovered through treatment with 0.5 ml of the same buffer as above but containing 500 mM sodium chloride (4 times in all, 2 ml of the buffer was used in total). This was used as a test sample.
The test sample was suitably diluted with a buffer for measurement (mentioned above), 25 μl of the thus-diluted sample was mixed with 25 μl of the buffer, 20 μl of a trypsin solution (as prepared by adding trypsin, Type 12 (produced by Sigma Co.) to the buffer at a concentration of 1 mg/ml) was added thereto, and this was incubated at 35° C. for 5 minutes. Then, 30 μl of a soybean trypsin inhibitor solution (as prepared at a concentration of 3 mg/ml, using the buffer) was added to this to thereby inactivate the trypsin. The resulting solution is designated collagenase solution.
Using type I collagen as labeled with fluorescein isothiocyanate (hereinafter referred to as FITC) (this is an acetic acid solution of FITC-collagen having a concentration of 1 mg/ml; produced by Cosmo-Bio Co.), as a substrate solution, the collagenase activity (unit/ml) of the solution was measured according to the method of Nagai et al. (see Inflammations, Vol. 4, No. 2, p. 123, 1984). […] The procollagenase production (unit/ml of culture medium) was thus obtained and referred to as X1.

healthy panelists = settings: in vivo
Description: Aqueous solutions of N-methyl-L-serine, ethanolamine and N-methylethanolamine that had been adjusted to have a pH 7 with hydrochloric acid were used as test samples. These test samples were applied to 19 healthy panelists.
One hour and 24 hours after the removal of the patch, the condition of the skin of each panelist was observed.

male ICR mice = assay: Acute Toxicity Test; settings: oral, 5 g/kg of body weight; observed for 7 days
Description: Water, or an aqueous solution of N-Methyl-L-Serine (this was prepared to have a concentration of 5 g/kg of body weight of test animal, as a sample) was orally administered to male ICR mice (5 weeks-age; body weight, 24 to 28 g; 5 mice in one group), in an amount of […] of body weight.

CN[C@@H](CO)C(=O)O [Example 1, N-methyl-L-serine]
Primary Stimulation Score [1]: 0
stimulation to the skin (in words) [1]: low
Procollagenase Production ([2]; mean ± SD, n = 3): 4.2 ± 2.0 unit/ml
activity at 1000 µM ([2]; Homo sapiens, Fibroblast, 144 h, control = 100, read-out: Response to PDGF Increment): 690%
concentration dependence of increase in procollagenase production / response to βFGF ([3]; 0.01 to 10 mM): in a concentration-dependent manner
activity at 1000 µM ([3]; 144 h, Test Example 1, 1 mM, 6 days, 3 ng/ml βFGF, control (purified water) = 100): 220%
activity at 1000 µM ([3]; Test Example 2, 0.01 mM, control = 100): 100%
activity at 1000 µM ([3]; Test Example 2, 1.0 mM, control = 100): 130%
Procollagenase Production ([3]; Test Example 1, 1 mM, 6 days, 3 ng/ml βFGF): 15 ± 1.0 unit/ml
Procollagenase Production ([3]; Test Example 2, 0.01 mM): 15 ± 3.3 unit/ml
Procollagenase Production ([3]; Test Example 2, 0.1 mM): 17 ± 2.9 unit/ml
Procollagenase Production ([3]; Test Example 2, 0.3 mM): 24 ± 3.5 unit/ml
Procollagenase Production ([3]; Test Example 2, 1.0 mM): 19 ± 1.3 unit/ml
Procollagenase Production ([3]; Test Example 2, 3.0 mM): 26 ± 1.5 unit/ml
Procollagenase Production ([3]; Test Example 2, 10 mM): 32 ± 2.2 unit/ml
panelists with erythema (healthy panelists): only one panelists had minor erythema
deaths of mice (male ICR mice): No mice of the test group to which N-Methyl-L-Serine was administered died
